Seven compounds from patent US9949478B2, “Herbicidal combination with herbicidal active fatty acids and an ALS-inhibitor” (BAYER CROPSCIENCE AKTIENGESELLSCHAFT, priority 2013, dated 2018) can be followed below.

Holding throughout (assay): Post-emergence test
Holding throughout (assay type): in vivo

The test system of one test is Stellaria media. As to conditions: 34 days. The text has this:
(§1) The following formulations of the active compounds involved were used: • fatty acids 120 EC (fatty acid mixture of two fatty acids having hydrocarbon chains of 8 and 10 carbon atoms in a ratio of 60 to 40; for the preparation see EP application number 12177824.5; title: “Emulsifiable Concentrate Formulation with Herbicidal Active Fatty Acids); application date: Jul. 25, 2012). • foramsulfuron 50 WG (water dispersible granule) standard granule formulation without adjuvants • iodosulfuron 10 WG (water dispersible granule) • (commercial formulation Destiny, approved inter alia in Australia—Bayer CropScience) • mesosulfuron 75 WG (water dispersible granule) standard granule formulation without adjuvants • thiencarbazone 70 WG (water dispersible granule) standard granule formulation without adjuvants • flazasulfuron 25 WG (water dispersible granule) • (commercial formulation Chikara, approved inter alia in Germany—product licence holder ISK Biosciences) • amidosulfuron 75 WG (water dispersible granule) • (commercial formulation Hoestar, approved inter alia in Germany—Bayer CropScience) • ethoxysulfuron 60 WG (water dispersible granule) • (commercial formulation SunRice, approved inter alia in Italy—Bayer CropScience)
(§2) The active compound concentrations required for the tests were prepared by dilution with water. The tested active compound combinations were mixed shortly before their biological examination.
(§3) In the case of all herbicide combinations according to the invention, for most of the test plants synergistic actions are observed (see Tables 1 to 25).

The test system of the next test is Plantago major.
Excerpt: as §1, §2, §3

The subject of the next test is Festuca ovina.
Excerpt: as §1, §2, §3

The test system of the next test is Trifolium repens.
Excerpt: as §1, §2, §3

For another test, the system named is Bellis perennis. As to conditions: 34 days.
Excerpt: as §1, §2, §3

Another test deals with Taraxacum officinale.
Excerpt: as §1, §2, §3

Another test relates to Achillea millefolium. The note with it: 34 days.
Excerpt: as §1, §2, §3

For the next test, the system named is Rumex acetosa. The note with it: 34 days.
Excerpt: as §1, §2, §3

The subject of another test is Ranunculus repens. As to conditions: 34 days.
Excerpt: as §1, §2, §3

The subject of the next test is Plantago lanceolata. The note with it: 34 days.
Excerpt: as §1, §2, §3

Another test deals with Chenopodium album.
Excerpt: as §1, §2, §3

For a further test, the system named is Lotus corniculatus. As to conditions: 34 days.
Excerpt: as §1, §2, §3

Another test concerns Poa annua. As to conditions: 48 days.
Excerpt: as §1, §2, §3

Setting [1] is: 30 g of active compound/ha, 34 days.
[2] abbreviates: 60 g of active compound/ha, 34 days.
[3] abbreviates: 37.5 g of active compound/ha, 34 days.
Where [4] appears, read: 15 g of active compound/ha, 48 days.
Setting [5] is: 45 g of active compound/ha, 34 days.
Setting [6] is: 45 g of active compound/ha, 48 days.
Setting [7] is: 60 g of active compound/ha, 48 days.
Setting [8] is: 1 g of active compound/ha, 48 days.
Where [9] appears, read: 1.25 g of active compound/ha, 34 days.
[10] abbreviates: 1.25 g of active compound/ha, 48 days.
[11] abbreviates: 2.5 g of active compound/ha, 48 days.
Setting [12] is: 10 g of active compound/ha, 48 days.
Setting [13] is: 15 g of active compound/ha, 34 days.
The mark [14] stands for this setting: 20 g of active compound/ha, 34 days.

Each structure is given as a SMILES string. Values joined by “and” are separate entries in the source; they are usually repeats but may differ in a detail not shown here. Equal entries are not always repeated.

With `COc1cc(OC)nc(NC(=O)NS(=O)(=O)N(C)S(C)(=O)=O)n1` [Amidosulfuron, 3-(4,6-dimethoxypyrimidin-2-yl)-1-(N-methyl-N-methylsulfonylaminosulfonyl)urea], the “herbicidal effect [%]” value is recorded as 10% with Stellaria media (30 g of active compound/ha); 88% with Plantago major (setting [1]); 0% with Festuca ovina (setting [1]); 13% in the test with Trifolium repens (setting [1]); 33% in the test on Bellis perennis (30 g of active compound/ha); 88% with Taraxacum officinale (setting [1]). Moreover, the “herbicidal effect [%]” value with Achillea millefolium (30 g of active compound/ha) is on record as 18%; in the test with Rumex acetosa (30 g of active compound/ha), 28%; in the test with Ranunculus repens (30 g of active compound/ha) it was 96%; in the test with Plantago lanceolata (30 g of active compound/ha) it was 13%; with Chenopodium album (setting [1]), 27%; in the test on Lotus corniculatus (30 g of active compound/ha) it was 0%.

With `CCOc1ccccc1OS(=O)(=O)NC(=O)Nc1nc(OC)cc(OC)n1` [Ethoxysulfuron, 2-ethoxyphenyl[(4,6-dimethoxypyrimidin-2-yl)carbamoyl]sulfamate], the “herbicidal effect [%]” value was 5% in the test with Stellaria media (60 g of active compound/ha); 0% with Plantago major (setting [2]); 0% in the test on Festuca ovina (setting [2]); 47% in the test on Trifolium repens (setting [2]); 10% with Bellis perennis (60 g of active compound/ha); 38% in the test on Taraxacum officinale (setting [2]). In addition, the “herbicidal effect [%]” value in the test with Achillea millefolium (60 g of active compound/ha) is 13%; with Rumex acetosa (60 g of active compound/ha), 25%; in the test on Ranunculus repens (60 g of active compound/ha), 92%; with Plantago lanceolata (60 g of active compound/ha), 5%; in the test with Chenopodium album (setting [2]), 5%; in the test with Lotus corniculatus (60 g of active compound/ha), 0%.

Consider `COc1cc(OC)nc(NC(=O)NS(=O)(=O)c2ncccc2C(F)(F)F)n1` [Flazasulfuron, 1-(4,6-dimethoxypyrimidin-2-yl)-3-(3-trifluoromethyl-2-pyridylsulfonyl)urea], for which the “herbicidal effect [%]” value in the test with Stellaria media (37.5 g of active compound/ha) was found to be 95%; in the test with Plantago major (setting [3]), 75%; in the test on Festuca ovina (setting [3]), 68%; with Trifolium repens (setting [3]), 63%; in the test with Bellis perennis (37.5 g of active compound/ha) it was 52%; in the test on Taraxacum officinale (setting [3]), 87%. For the same compound, the “herbicidal effect [%]” value in the test on Achillea millefolium (37.5 g of active compound/ha) is 67%; with Rumex acetosa (37.5 g of active compound/ha) it was 52%; in the test on Ranunculus repens (37.5 g of active compound/ha) it was 99%; in the test on Plantago lanceolata (37.5 g of active compound/ha), 7%; in the test with Chenopodium album (setting [3]), 70%; with Lotus corniculatus (37.5 g of active compound/ha), 23%.

In the case of `COc1cc(OC)nc(NC(=O)NS(=O)(=O)c2cc(NC=O)ccc2C(=O)N(C)C)n1` [Foramsulfuron, 1-(4,6-dimethoxypyrimidin-2yl)-3-(2-dimethylcarbamoyl-5-formamidophenylsulfonyl)urea], the “herbicidal effect [%]” value in the test with Stellaria media (45 g of active compound/ha) was 18%; in the test with Plantago major (setting [4]) it was 0%; in the test on Plantago major (setting [5]), 47%; with Plantago major (setting [6]) it was 23%; in the test with Plantago major (setting [7]), 33.3% and 33%; with Festuca ovina (setting [4]) it was 6.7%. The “herbicidal effect [%]” value in the test on Festuca ovina (setting [5]) is 35%; in the test on Festuca ovina (setting [6]), 53%; in the test with Festuca ovina (setting [7]), 58.3% and 58%; in the test on Trifolium repens (setting [4]) it was 18.3%; with Trifolium repens (setting [5]), 20%; in the test on Trifolium repens (setting [6]), 53%. The “herbicidal effect [%]” value in the test with Trifolium repens (setting [7]) stood at 60%; in the test with Bellis perennis (45 g of active compound/ha), 13%; in the test with Taraxacum officinale (setting [4]) it was 45%; in the test on Taraxacum officinale (setting [5]), 55%; with Taraxacum officinale (setting [6]), 70%; in the test on Taraxacum officinale (setting [7]), 75%. Moreover, the “herbicidal effect [%]” value is reported as 17% with Achillea millefolium (45 g of active compound/ha); 11% with Rumex acetosa (45 g of active compound/ha); 95% in the test on Ranunculus repens (45 g of active compound/ha); 8% with Plantago lanceolata (45 g of active compound/ha); 0% with Chenopodium album (setting [4]); 8% in the test on Chenopodium album (setting [5]). In addition, the “herbicidal effect [%]” value with Chenopodium album (setting [6]) is 13%; in the test on Chenopodium album (setting [7]), 13.3% and 13%; in the test with Lotus corniculatus (45 g of active compound/ha), 0%; in the test on Poa annua (15 g of active compound/ha) it was 18.3%; in the test on Poa annua (45 g of active compound/ha) it was 48%; in the test on Poa annua (60 g of active compound/ha) it was 73.3% and 73%.

As to `COc1nc(C)nc(NC(=O)NS(=O)(=O)c2cc(I)ccc2C(=O)[O-])n1.[Na+]` [Iodosulfuron-methyl sodium salt, 4-iodo-2-[(4-methoxy-6-methyl-1,3,5-triazin-2-yl)carbamoylsulfamoyl]benzoate, sodium salt], the “herbicidal effect [%]” value in the test with Stellaria media (1.25 g of active compound/ha) was found to be 22%; with Plantago major (setting [8]), 0%; with Plantago major (setting [9]), 22%; in the test with Plantago major (setting [10]) it was 3%; in the test with Plantago major (setting [11]), 30%; in the test on Plantago major (setting [12]), 53.3%. The “herbicidal effect [%]” value was 0% in the test with Festuca ovina (setting [8]); 0% in the test with Festuca ovina (setting [9]); 0% with Festuca ovina (setting [10]); 0% in the test on Festuca ovina (setting [11]); 6.7% in the test on Festuca ovina (setting [12]); 18.3% in the test on Trifolium repens (setting [8]). For the same compound, the “herbicidal effect [%]” value in the test on Trifolium repens (setting [9]) was 10%; in the test with Trifolium repens (setting [10]), 32%; in the test on Trifolium repens (setting [11]), 45%; in the test with Trifolium repens (setting [12]), 80%; in the test with Bellis perennis (1.25 g of active compound/ha) it was 10%; in the test on Taraxacum officinale (setting [8]), 18.3%. Further, the “herbicidal effect [%]” value in the test with Taraxacum officinale (setting [9]) turned out to be 50%; with Taraxacum officinale (setting [10]), 18%; with Taraxacum officinale (setting [11]) it was 42%; in the test with Taraxacum officinale (setting [12]), 85%; with Achillea millefolium (1.25 g of active compound/ha), 5%; in the test on Rumex acetosa (1.25 g of active compound/ha) it was 12%. Moreover, the “herbicidal effect [%]” value is 73% in the test with Ranunculus repens (1.25 g of active compound/ha); 3% in the test with Plantago lanceolata (1.25 g of active compound/ha); 0% in the test on Chenopodium album (setting [8]); 13% with Chenopodium album (setting [9]); 0% in the test with Chenopodium album (setting [10]); 10% in the test on Chenopodium album (setting [11]). Moreover, the “herbicidal effect [%]” value is listed as 40% in the test on Chenopodium album (setting [12]); 0% in the test with Lotus corniculatus (1.25 g of active compound/ha); 0% in the test on Poa annua (1 g of active compound/ha); 0% in the test with Poa annua (1.25 g of active compound/ha); 0% in the test with Poa annua (2.5 g of active compound/ha); 0% in the test on Poa annua (10 g of active compound/ha).

Turning to `COC(=O)c1ccc(CNS(C)(=O)=O)cc1S(=O)(=O)NC(=O)Nc1nc(OC)cc(OC)n1` [Mesosulfuron-methyl, methyl 2-[(4,6-dimethoxypyrimidin-2-ylcarbamoyl)sulfamoyl]-a-(methanesulfonamido)-p-toluate], the “herbicidal effect [%]” value was 2% with Stellaria media (15 g of active compound/ha); 0% in the test with Plantago major (setting [13]); 0% in the test on Festuca ovina (setting [13]); 2% with Trifolium repens (setting [13]); 5% in the test on Bellis perennis (15 g of active compound/ha); 42% in the test with Taraxacum officinale (setting [13]). The “herbicidal effect [%]” value was 4% in the test on Achillea millefolium (15 g of active compound/ha); 2% in the test with Rumex acetosa (15 g of active compound/ha); 80% with Ranunculus repens (15 g of active compound/ha); 0% in the test on Plantago lanceolata (15 g of active compound/ha); 3% in the test on Chenopodium album (setting [13]); 0% with Lotus corniculatus (15 g of active compound/ha).

Turning to `COC(=O)c1csc(C)c1S(=O)(=O)NC(=O)n1nc(OC)n(C)c1=O` [Thiencarbazone-methyl, methyl 4-[(4,5-dihydro-3-methoxy-4-methyl-5-oxo-1H-1,2,4-triazol-1yl)carbonylsulfamoyl]-5-methylthiophene-3-carboxylate], the “herbicidal effect [%]” value with Stellaria media (20 g of active compound/ha) is 53%; in the test on Plantago major (setting [14]), 87%; in the test on Festuca ovina (setting [14]), 42%; in the test on Trifolium repens (setting [14]), 55%; in the test with Bellis perennis (20 g of active compound/ha), 28%; with Taraxacum officinale (setting [14]) it was 38%. For the same compound, the “herbicidal effect [%]” value in the test with Achillea millefolium (20 g of active compound/ha) is on record as 25%; in the test with Rumex acetosa (20 g of active compound/ha), 52%; in the test on Ranunculus repens (20 g of active compound/ha), 97%; with Plantago lanceolata (20 g of active compound/ha), 67%; in the test with Chenopodium album (setting [14]), 23%; with Lotus corniculatus (20 g of active compound/ha) it was 2%.
